Laboratory results reported in paper PMC10412605 (Nature Communications, 2023).

T1: human mSerRS (Homo sapiens, UniProt Q9NP81)
T1 construct: gene SARS2; aa 31-518, without N-terminal 30 residues; N-terminal GST tag (pGEX-6P1) cut by PreScission protease; expressed in E. coli BL21(DE3); homodimer
T1 sequence (Q9NP81 31-518): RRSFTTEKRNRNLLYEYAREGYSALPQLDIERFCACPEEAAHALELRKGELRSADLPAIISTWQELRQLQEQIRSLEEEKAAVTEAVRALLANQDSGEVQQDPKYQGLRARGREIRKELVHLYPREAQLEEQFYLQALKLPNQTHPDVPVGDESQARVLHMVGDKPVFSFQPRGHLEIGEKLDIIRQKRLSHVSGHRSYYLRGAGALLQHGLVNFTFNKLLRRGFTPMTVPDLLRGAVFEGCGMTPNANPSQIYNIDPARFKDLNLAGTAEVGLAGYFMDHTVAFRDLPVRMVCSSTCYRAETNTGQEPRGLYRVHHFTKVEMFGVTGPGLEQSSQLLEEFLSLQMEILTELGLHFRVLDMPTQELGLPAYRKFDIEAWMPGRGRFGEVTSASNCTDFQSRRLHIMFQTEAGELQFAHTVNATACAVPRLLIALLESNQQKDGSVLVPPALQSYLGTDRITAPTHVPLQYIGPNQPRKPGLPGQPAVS


How the values were obtained:
human mSerRS = molecular target: T1, human mSerRS; test: cryo-EM structure, […] Å; format: binding; conditions: complex with stabilized mtRNASer(UGA) transcript; both active sites of the dimer occupied; pH 7.0, 7.5 mM MgCl2
[1] = molecular target: the molecule itself; test: mass photometry; 25 nM mSerRS, 125 nM mtRNASer(UGA), 250 nM SerSA; 20 mM HEPES pH 7.0, 100 mM NaCl, 7.5 mM MgCl2, 1 mM DTT

| Molecule | cryo-EM structure, 3.6 Å (human mSerRS) | stoichiometry N [1] |
| --- | --- | --- |
| Nc1ncnc2c1ncn2[C@@H]1O[C@H](COS(=O)(=O)NC(=O)[C@@H](N)CO)[C@@H](O)[C@H]1O [SerSA, 5’-O-[N-(L-seryl)sulfamoyl] adenosine] | Both active sites are occupied by a SerSA ligand | – |
| human mSerRS (mitochondrial seryl-tRNA synthetase) (enzyme, UniProt Q9NP81 31-518, looked up, also called mt-SerRS; not shown: GST, N-terminal, cleaved) RRSFTTEKRNRNLLYEYAREGYSALPQLDIERFCACPEEAAHALELRKGELRSADLPAIISTWQELRQLQEQIRSLEEEKAAVTEAVRALLANQDSGEVQQDPKYQGLRARGREIRKELVHLYPREAQLEEQFYLQALKLPNQTHPDVPVGDESQARVLHMVGDKPVFSFQPRGHLEIGEKLDIIRQKRLSHVSGHRSYYLRGAGALLQHGLVNFTFNKLLRRGFTPMTVPDLLRGAVFEGCGMTPNANPSQIYNIDPARFKDLNLAGTAEVGLAGYFMDHTVAFRDLPVRMVCSSTCYRAETNTGQEPRGLYRVHHFTKVEMFGVTGPGLEQSSQLLEEFLSLQMEILTELGLHFRVLDMPTQELGLPAYRKFDIEAWMPGRGRFGEVTSASNCTDFQSRRLHIMFQTEAGELQFAHTVNATACAVPRLLIALLESNQQKDGSVLVPPALQSYLGTDRITAPTHVPLQYIGPNQPRKPGLPGQPAVS | – | 2 |
